Measurements published in patent US20150141381A1, “TETRACYCLINE COMPOUNDS HAVING TARGET THERAPEUTIC ACTIVITIES” (Paratek Pharmaceuticals, Inc., priority 2001, published 2015).

Legend:
[1] = tested on: S. aureus RN450; test: In Vitro Anti-Bacterial Activity Assay (MIC), gram positive; assay type: cell-based; settings: Staphylococcus aureus, RN450, 18 h, gram positive bacteria; read-out: Antibiotic Activity Gram + (MIC)
[2] = tested on: E. coli mL308 225; test: In Vitro Anti-Bacterial Activity Assay (MIC), gram negative; assay type: cell-based; settings: Escherichia coli, ML308225, 18 h, gram negative bacteria; read-out: Antibiotic Activity Gram − (MIC)

Structure (SMILES) | MIC [1] | MIC [2]
CN(C)c1cc(CN)c(O)c2c1C[C@H]1C[C@H]3[C@H](N(C)C)C(O)=C(C(N)=O)C(=O)[C@@]3(O)C(O)=C1C2=O | < 4 µg/mL | > 4 µg/mL
CC(C)Cc1cc(N(C)C)c2c(c1O)C(=O)C1=C(O)[C@]3(O)C(=O)C(C(N)=O)=C(O)[C@@H](N(C)C)[C@@H]3C[C@@H]1C2 | < 4 µg/mL | < 4 µg/mL
CC(=O)NCc1ccc(O)c2c1C[C@H]1C[C@H]3[C@H](N(C)C)C(O)=C(C(N)=O)C(=O)[C@@]3(O)C(O)=C1C2=O | < 4 µg/mL | > 4 µg/mL
CN(C)[C@@H]1C(O)=C(C(N)=O)C(=O)[C@@]2(O)C(O)=C3C(=O)c4c(O)ccc(CNC(=O)C(C)(C)C)c4C[C@H]3C[C@@H]12 | < 4 µg/mL | > 4 µg/mL
C/C(=N/OCC(C)C)c1ccc(O)c2c1C[C@H]1C[C@H]3[C@H](N(C)C)C(O)=C(C(N)=O)C(=O)[C@@]3(O)C(O)=C1C2=O | < 4 µg/mL | < 4 µg/mL
CCCN(C)Cc1cc(N(C)C)c2c(c1O)C(=O)C1=C(O)[C@]3(O)C(=O)C(C(N)=O)=C(O)[C@@H](N(C)C)[C@@H]3C[C@@H]1C2 | < 4 µg/mL | > 4 µg/mL
CCCc1cc(N(C)C)c2c(c1O)C(=O)C1=C(O)[C@]3(O)C(=O)C(C(N)=O)=C(O)[C@@H](N(C)C)[C@@H]3C[C@@H]1C2 | < 4 µg/mL | > 4 µg/mL
CN1CCC(NCc2ccc3c(c2O)C(=O)C2=C(O)[C@]4(O)C(=O)C(C(N)=O)=C(O)[C@@H](N(C)C)[C@@H]4C[C@@H]2C3)CC1 | > 4 µg/mL | > 4 µg/mL
CN(C)c1cc(CCC(=O)NC(C)(C)C)c(O)c2c1C[C@H]1C[C@H]3[C@H](N(C)C)C(O)=C(C(N)=O)C(=O)[C@@]3(O)C(O)=C1C2=O | > 4 µg/mL | > 4 µg/mL
CSCc1cc(-c2ccccn2)c2c(c1O)C(=O)C1=C(O)[C@]3(O)C(=O)C(C(N)=O)=C(O)[C@@H](N(C)C)[C@@H]3C[C@@H]1C2 | < 4 µg/mL | > 4 µg/mL
CC(=O)Cc1cc(N(C)C)c2c(c1O)C(=O)C1=C(O)[C@]3(O)C(=O)C(C(N)=O)=C(O)[C@@H](N(C)C)[C@@H]3C[C@@H]1C2 | < 4 µg/mL | > 4 µg/mL
CC(=O)Cc1cc(-c2ccccn2)c2c(c1O)C(=O)C1=C(O)[C@]3(O)C(=O)C(C(N)=O)=C(O)[C@@H](N(C)C)[C@@H]3C[C@@H]1C2 | > 4 µg/mL | > 4 µg/mL
CN(C)[C@@H]1C(O)=C(C(N)=O)C(=O)[C@@]2(O)C(O)=C3C(=O)c4c(O)c(CS(C)(=O)=O)cc(I)c4C[C@H]3C[C@@H]12 | < 4 µg/mL | > 4 µg/mL
CN(C)[C@@H]1C(O)=C(C(N)=O)C(=O)[C@@]2(O)C(O)=C3C(=O)c4c(O)c(N)cc(-c5ccccn5)c4C[C@H]3C[C@@H]12 | < 4 µg/mL | > 4 µg/mL
CN(C)[C@@H]1C(O)=C(C(N)=O)C(=O)[C@@]2(O)C(O)=C3C(=O)c4c(O)c(CN)cc(Cl)c4C=C3C[C@@H]12 | > 4 µg/mL | > 4 µg/mL
CN(C)[C@@H]1C(O)=C(C(N)=O)C(=O)[C@@]2(O)C(O)=C3C(=O)c4c(O)ccc(Cl)c4C=C3C[C@@H]12 | < 4 µg/mL | < 4 µg/mL
CC(=O)/C=C/c1ccc(O)c2c1C[C@H]1C[C@H]3[C@H](N(C)C)C(O)=C(C(N)=O)C(=O)[C@@]3(O)C(O)=C1C2=O | < 4 µg/mL | > 4 µg/mL
CN(C)[C@@H]1C(O)=C(C(N)=O)C(=O)[C@@]2(O)C(O)=C3C(=O)c4c(O)c(CS(C)(=O)=O)cc(-c5ccccn5)c4C[C@H]3C[C@@H]12 | < 4 µg/mL | > 4 µg/mL
Cc1noc(C)c1-c1ccc(O)c2c1C[C@H]1C[C@H]3[C@H](N(C)C)C(O)=C(C(N)=O)C(=O)[C@@]3(O)C(O)=C1C2=O | < 4 µg/mL | < 4 µg/mL
Cc1ccc(O)c2c1C[C@H]1C[C@H]3[C@H](N(C)C)C(O)=C(C(N)=O)C(=O)[C@@]3(O)C(O)=C1C2=O | < 4 µg/mL | < 4 µg/mL
CN(C)c1ccc(O)c2c1C[C@H]1C[C@H]3[C@H](N(C)C)C(O)=C(C#N)C(=O)[C@@]3(O)C(O)=C1C2=O | > 4 µg/mL | > 4 µg/mL
CC(=O)N(Cc1cc(N(C)C)c2c(c1O)C(=O)C1=C(O)[C@]3(O)C(=O)C(C(N)=O)=C(O)[C@@H](N(C)C)[C@@H]3C[C@@H]1C2)CC(C)(C)C | > 4 µg/mL | > 4 µg/mL
CNCc1cc(N(C)C)c2c(c1O)C(=O)C1=C(O)[C@]3(O)C(=O)C(C(N)=O)=C(O)[C@@H](N(C)C)[C@@H]3C[C@@H]1C2 | < 4 µg/mL | > 4 µg/mL
CN(C)[C@@H]1C(O)=C(C(N)=O)C(=O)[C@@]2(O)C(O)=C3C(=O)c4c(O)ccc(Cl)c4C[C@H]3C[C@@H]12 | < 4 µg/mL | < 4 µg/mL
Cc1ccc(-c2ccc(O)c3c2C[C@H]2C[C@H]4[C@H](N(C)C)C(O)=C(C(N)=O)C(=O)[C@@]4(O)C(O)=C2C3=O)cn1 | < 4 µg/mL | < 4 µg/mL
CCNCc1cc(N(C)C)c2c(c1O)C(=O)C1=C(O)[C@]3(O)C(=O)C(C(N)=O)=C(O)[C@@H](N(C)C)[C@@H]3C[C@@H]1C2 | < 4 µg/mL | > 4 µg/mL

Structure (SMILES) | MIC [1] | MIC [2]
CN(C)[C@@H]1C(O)=C(C(N)=O)C(=O)[C@@]2(O)C(O)=C3C(=O)c4c(O)ccc(-c5ccncc5F)c4C[C@H]3C[C@@H]12 | < 4 µg/mL | < 4 µg/mL
CN(C)c1cc(-c2ccccn2)c2c(c1O)C(=O)C1=C(O)[C@]3(O)C(=O)C(C(N)=O)=C(O)[C@@H](N(C)C)[C@@H]3C[C@@H]1C2 | < 4 µg/mL | > 4 µg/mL
CC(=O)Nc1cc(-c2ccccn2)c2c(c1O)C(=O)C1=C(O)[C@]3(O)C(=O)C(C(N)=O)=C(O)[C@@H](N(C)C)[C@@H]3C[C@@H]1C2 | < 4 µg/mL | > 4 µg/mL
Cc1cc(-c2ccccn2)c2c(c1O)C(=O)C1=C(O)[C@]3(O)C(=O)C(C(N)=O)=C(O)[C@@H](N(C)C)[C@@H]3C[C@@H]1C2 | < 4 µg/mL | > 4 µg/mL
CN(C)[C@@H]1C(O)=C(C(N)=O)C(=O)[C@@]2(O)C(O)=C3C(=O)c4c(O)c(S(=O)(=O)O)cc(Cl)c4C=C3C[C@@H]12 | > 4 µg/mL | > 4 µg/mL
CN(C)c1ccc(O)c2c1C[C@H]1C[C@H]3[C@H]([N+](C)(C)C)C(O)=C(C(N)=O)C(=O)[C@@]3(O)C(O)=C1C2=O | < 4 µg/mL | > 4 µg/mL
NC(=O)C1=C(O)C[C@@H]2C[C@@H]3Cc4cccc(O)c4C(=O)C3=C(O)[C@]2(O)C1=O | < 4 µg/mL | < 4 µg/mL
CN(C)c1ccc(O)c2c1C[C@H]1C[C@H]3CC(O)=C(C(N)=O)C(=O)[C@@]3(O)C(O)=C1C2=O | < 4 µg/mL | < 4 µg/mL
CC1C(C(=O)[C@@H]2CC(=O)C(C(N)=O)=C(O)[C@H]2N(C)C)=C(C(=O)NCC(C)(C)C)C(=O)c2c(O)cccc21 (stereo partly drawn) | > 4 µg/mL | > 4 µg/mL
CN(C)[C@@H]1C(O)=C(C(N)=O)C(=O)[C@@]2(O)C(O)=C3C(=O)c4c(O)ccc(-n5cccn5)c4C[C@H]3C[C@@H]12 | < 4 µg/mL | < 4 µg/mL
CN(C)[C@@H]1C(O)=C(C(N)=O)C(=O)[C@@]2(O)C(O)=C3C(=O)c4c(O)ccc(S(=O)(=O)O)c4C[C@H]3C[C@@H]12 | > 4 µg/mL | > 4 µg/mL
CN(C)[C@@H]1C(O)=C(C(N)=O)C(=O)[C@@]2(O)C(O)=C3C(=O)c4c(O)cc(Cl)c(N)c4C[C@H]3C[C@@H]12 | > 4 µg/mL | > 4 µg/mL
NC(=O)C1=C(O)C[C@@H]2C[C@@H]3Cc4ccc(CN5CCCCC5)c(O)c4C(=O)C3=C(O)[C@]2(O)C1=O | > 4 µg/mL | > 4 µg/mL
COC1C(C(N)=O)=C(O)[C@@H](N(C)C)[C@@H]2[C@@H](O)[C@H]3C(=C(O)[C@]12O)C(=O)c1c(O)cccc1[C@@H]3C (stereo partly drawn) | > 4 µg/mL | > 4 µg/mL
CCCCOC1C(C(N)=O)=C(O)[C@@H](N(C)C)[C@@H]2[C@@H](O)[C@H]3C(=C(O)[C@]12O)C(=O)c1c(O)cccc1[C@@H]3C (stereo partly drawn) | > 4 µg/mL | > 4 µg/mL
CN(C)c1cc2c(c3c1C[C@H]1C[C@H]4[C@H](N(C)C)C(O)=C(C(N)=O)C(=O)[C@@]4(O)C(O)=C1C3=O)OC(=O)N(CC(C)(C)C)C2 | > 4 µg/mL | > 4 µg/mL
CN(C)[C@@H]1C(O)=C(C(N)=O)C(=O)[C@@]2(O)C(O)=C3C(=O)c4c(O)ccc(Cl)c4[C@](C)(O)[C@H]3C[C@@H]12 | < 4 µg/mL | > 4 µg/mL
C[C@H]1c2c(N)cc(I)c(O)c2C(=O)C2=C(O)[C@]3(O)C(=O)C(C(N)=O)=C(O)[C@@H](N(C)C)[C@@H]3[C@@H](O)[C@@H]21 | > 4 µg/mL | > 4 µg/mL
CN(C)[C@@H]1C(O)=C(C(N)=O)C(=O)[C@@]2(O)C(O)=C3C(=O)c4c(ccc(CNCCC(F)(F)F)c4O)C[C@H]3C[C@@H]12 | < 4 µg/mL | < 4 µg/mL
CN(C)c1cc(CN2CCC3(CC2)OCCO3)c(O)c2c1C[C@H]1C[C@H]3[C@H](N(C)C)C(O)=C(C(N)=O)C(=O)[C@@]3(O)C(O)=C1C2=O | < 4 µg/mL | < 4 µg/mL
CN(C)c1cc(CN2CCC(C(F)(F)F)CC2)c(O)c2c1C[C@H]1C[C@H]3[C@H](N(C)C)C(O)=C(C(N)=O)C(=O)[C@@]3(O)C(O)=C1C2=O | < 4 µg/mL | < 4 µg/mL
CN(C)c1cc(CNCc2ccc(F)cc2)c(O)c2c1C[C@H]1C[C@H]3[C@H](N(C)C)C(O)=C(C(N)=O)C(=O)[C@@]3(O)C(O)=C1C2=O | < 4 µg/mL | < 4 µg/mL
C[C@H]1c2ccc(CN3CCC(F)(F)CC3)c(O)c2C(=O)C2=C(O)[C@]3(O)C(=O)C(C(N)=O)=C(O)[C@@H](N(C)C)[C@@H]3[C@@H](O)[C@@H]21 | < 4 µg/mL | < 4 µg/mL
C[C@H]1c2ccc(CNCCC(F)(F)F)c(O)c2C(=O)C2=C(O)[C@]3(O)C(=O)C(C(N)=O)=C(O)[C@@H](N(C)C)[C@@H]3[C@@H](O)[C@@H]21 | < 4 µg/mL | < 4 µg/mL
CN(C)c1cc(CNNCC(F)(F)F)c(O)c2c1C[C@H]1C[C@H]3[C@H](N(C)C)C(O)=C(C(N)=O)C(=O)[C@@]3(O)C(O)=C1C2=O | < 4 µg/mL | > 4 µg/mL
